The record followed here is patent publication US20240067668A1, “HETEROARYL DERIVATIVE COMPOUND AND USE THEREOF” (VORONOI INC., priority 2020, published 2024).

For one test, the target named is EGFR Del19/T790M/C797S (Homo sapiens, UniProt P00533, C797S/T790M, form not given). The test is described as follows: Enzyme IC50, EGFR Del19/T790M/C797S. The class given is biochemical.
The subject of test [1] is BaF3-EGFR (Del19/T790M/C797S) cells. The test is described as follows: Inhibitory activity on Ba/F3 cell proliferation (CellTiter-Glo, 72 hours). The class given is cell-based. The settings on record: Ba/F3 cells expressing EGFR Del19/T790M/C797S. How it is done:
(§1) The following experiments were performed to evaluate the inhibitory activity of the compound represented by Chemical Formula 1 according to the present invention on the proliferation of Ba/F3 cells expressing EGFR mutants.
(§2) BaF3-EGFR (WT) and BaF3-EGFR (Del19/T790M/C797S) cells were seeded in a clear bottom white 96-well plate at a density of 3×10^3/100 μl/well, and then 0.5 μl/well of the culture medium, containing the compounds at 12 concentrations (0.00001-2 mM) serially diluted in 3 folds and the DMSO control, was added to a final concentration of 0.00005-10 μM, followed by culturing in a 37° C. CO2 incubator for 72 hours. After 72 hours, the plates treated with the compounds were taken out, treated with 100 μl/well of CellTiter-Glo® 2.0 Assay (Promega) solution, and mixed well. After mixing well at room temperature for about 10 minutes, […] was measured using a microplate reader. As to Data, GI50 (μM) values were calculated using GraphPad Prism 8.3.0 (GraphPad software Inc., San Diego) as percentages in proportion to vehicle-based treated cells. The result values were calculated as a cell growth rate (%) compared to the control group. A graph was created using the GraphPad Prism version 5.0 program, and GI50 (μM) values were calculated.
On the technique in general: Cellular ATP, detected with luciferase, serves as a proxy for viable cell number.

The next test relates to BaF3-EGFR (WT) cells. The description is as above. The class given is cell-based. The settings on record: Ba/F3 cells expressing EGFR WT. As to the method: as §1, §2

Sequence of EGFR Del19/T790M/C797S (P00533 25-1210 T790M/C797S, form open): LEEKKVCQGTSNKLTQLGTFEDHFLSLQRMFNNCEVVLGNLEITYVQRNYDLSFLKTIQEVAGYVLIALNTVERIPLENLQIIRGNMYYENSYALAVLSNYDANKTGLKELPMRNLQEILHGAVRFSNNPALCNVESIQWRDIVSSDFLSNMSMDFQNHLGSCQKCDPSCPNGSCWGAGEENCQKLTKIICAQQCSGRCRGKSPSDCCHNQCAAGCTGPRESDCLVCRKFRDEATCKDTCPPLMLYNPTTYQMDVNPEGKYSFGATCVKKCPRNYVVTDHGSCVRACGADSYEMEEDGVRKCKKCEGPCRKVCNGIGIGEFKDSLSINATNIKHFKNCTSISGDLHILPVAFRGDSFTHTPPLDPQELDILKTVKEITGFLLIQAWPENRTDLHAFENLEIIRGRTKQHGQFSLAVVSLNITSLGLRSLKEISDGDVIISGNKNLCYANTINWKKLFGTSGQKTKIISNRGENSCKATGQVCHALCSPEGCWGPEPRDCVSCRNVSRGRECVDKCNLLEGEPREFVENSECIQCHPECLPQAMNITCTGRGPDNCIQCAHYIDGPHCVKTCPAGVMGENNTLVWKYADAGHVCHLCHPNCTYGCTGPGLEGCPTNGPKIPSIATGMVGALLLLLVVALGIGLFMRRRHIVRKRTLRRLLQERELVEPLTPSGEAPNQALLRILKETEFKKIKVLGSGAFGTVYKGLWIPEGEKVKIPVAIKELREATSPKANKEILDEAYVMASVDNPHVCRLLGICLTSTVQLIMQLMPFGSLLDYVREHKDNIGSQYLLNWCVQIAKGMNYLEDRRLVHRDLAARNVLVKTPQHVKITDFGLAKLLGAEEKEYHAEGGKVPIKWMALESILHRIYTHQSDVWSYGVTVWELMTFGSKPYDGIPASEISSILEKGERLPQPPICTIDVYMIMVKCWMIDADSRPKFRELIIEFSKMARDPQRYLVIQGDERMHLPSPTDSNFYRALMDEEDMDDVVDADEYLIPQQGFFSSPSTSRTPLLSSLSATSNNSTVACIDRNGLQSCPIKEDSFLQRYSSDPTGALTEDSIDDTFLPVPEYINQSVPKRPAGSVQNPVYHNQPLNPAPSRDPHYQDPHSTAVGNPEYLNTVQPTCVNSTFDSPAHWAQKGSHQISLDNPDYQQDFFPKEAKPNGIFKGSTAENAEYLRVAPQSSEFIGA

By IC50 is commonly meant the midpoint of a concentration-inhibition curve. Broadly, the GI50 is the concentration that inhibits growth by half. Low values mean greater sensitivity of the cells, high ones lower sensitivity of the cells. The compound `Cc1cc(Nc2nc(Nc3ccc4nccnc4c3P(C)(C)=O)c3cc[nH]c3n2)c(OCC(F)(F)F)cc1N1CCC(N2CCN(C)CC2)CC1` [Example 8, dimethyl (6-((2-((5-methyl-4-(4-(4-methylpiperazin-1-yl)piperidin-1-yl)-2-(2,2,2-trifluoroethoxy)phenyl)amino)-7H-pyrrolo[2,3-d]pyrimidin-4-yl)amino)quinoxalin-5-yl)phosphine oxide] gave a concentration for half-maximal inhibition (IC50) at EGFR Del19/T790M/C797S not above 0.05 µM. The results for the GI50 (in test [1]; in the test on BaF3-EGFR (WT) cells) were not above 0.05 µM and more than 0.1 µM, respectively.

`Cc1cc(Nc2nc(Nc3ccc4nccnc4c3P(C)(C)=O)c3cc[nH]c3n2)c(OCC(F)(F)F)cc1N1CCN(C)CC1` [Example 9, dimethyl (6-((2-((5-methyl-4-(4-methylpiperazin-1-yl)-2-(2,2,2-trifluoroethoxy)phenyl)amino)-7H-pyrrolo[2,3-d]pyrimidin-4-yl)amino)quinoxalin-5-yl)phosphine oxide] had a half-maximal inhibitory concentration (IC50) at EGFR Del19/T790M/C797S not above 0.05 µM. Further, the concentration for 50% growth inhibition (GI50) (in test [1]; in the test on BaF3-EGFR (WT) cells) was more than 0.1 µM throughout.

Take `Cc1cc(Nc2nc(Nc3cnc4ccccc4c3P(C)(C)=O)c3cc[nH]c3n2)c(OCC(F)(F)F)cc1N1CCC(N2CCN(C)CC2)CC1` [Example 13, dimethyl (3-((2-((5-methyl-4-(4-(4-methylpiperazin-1-yl)piperidin-1-yl)-2-(2,2,2-trifluoroethoxy)phenyl)amino)-7H-pyrrolo[2,3-d]pyrimidin-4-yl)amino)quinolin-4-yl)phosphine oxide]: the IC50 at EGFR Del19/T790M/C797S was not above 0.05 µM. For the same compound, the GI50 (in test [1]; in the test on BaF3-EGFR (WT) cells) was more than 0.1 µM throughout.

For `COc1cc(N2CCN(C)CC2)c(-c2cnn(C)c2)cc1Nc1nc(Nc2ccc3nccnc3c2P(C)(C)=O)c2cc[nH]c2n1` [Example 21, (6-((2-((2-methoxy-5-(1-methyl-1H-pyrazol-4-yl)-4-(4-methylpiperazin-1-yl)phenyl)amino)-7H-pyrrolo[2,3-d]pyrimidin-4-yl)amino)quinoxalin-5-yl) dimethyl-phosphine oxide], the concentration for half-maximal inhibition (IC50) on EGFR Del19/T790M/C797S is not above 0.05 µM. Also, the GI50 was not above 0.05 µM in test [1] and more than 0.1 µM in the test on BaF3-EGFR (WT) cells.

As for `COc1cc(N2CCN(C3CCCC3)CC2)c(-c2cnn(C)c2)cc1Nc1nc(Nc2ccc3nccnc3c2P(C)(C)=O)c2cc[nH]c2n1` [Example 22, (6-((2-((4-(4-cyclopentyl-piperazin-1-yl)-2-methoxy-5-(1-methyl-1H-pyrazol-4-yl)phenyl)amino)-7H-pyrrolo[2,3-d]pyrimidin-4-yl)amino)quinoxalin-5-yl) dimethyl-phosphine oxide], at EGFR Del19/T790M/C797S, the IC50 is not above 0.05 µM. Further, the GI50 in test [1] is not above 0.05 µM; in the test with BaF3-EGFR (WT) cells, more than 0.1 µM.

`COc1cc(N2C[C@@H](C)O[C@@H](C)C2)c(-c2cnn(C)c2)cc1Nc1nc(Nc2ccc3nccnc3c2P(C)(C)=O)c2cc[nH]c2n1` [Example 23, (6-((2-((4-((2s, 6R)-2,6-dimethyl-morpholino)-2-methoxy-5-(1-methyl-1H-pyrazol-4-yl)phenyl)amino)-7H-pyrrolo[2,3-d]pyrimidin-4-yl)amino)quinoxalin-5-yl)dimethyl-phosphine oxide]: at EGFR Del19/T790M/C797S, the 50% inhibitory concentration (IC50) is not above 0.05 µM. The GI50 in test [1] is not above 0.05 µM; in the test on BaF3-EGFR (WT) cells, more than 0.1 µM.

For the compound `COc1cc(N2CCC(N3CCN(C)CC3)CC2)c(-c2cnn(C)c2)cc1Nc1nc(Nc2ccc3nccnc3c2P(C)(C)=O)c2cc[nH]c2n1` [Example 24, (6-((2-((2-methoxy-5-(1-methyl-1H-pyrazol-4-yl)-4-(4-(4-methylpiperazin-1-yl)piperidin-1-yl)phenyl)amino)-7H-pyrrolo[2,3-d]pyrimidin-4-yl)amino)quinoxalin-5-yl)dimethyl-phosphine oxide], the half-inhibitory concentration (IC50) on EGFR Del19/T790M/C797S was not above 0.05 µM. The GI50 in test [1] was not above 0.05 µM; with BaF3-EGFR (WT) cells, more than 0.1 µM.

In the case of `COc1cc(N2CCOCC2)c(-c2cnn(C)c2)cc1Nc1nc(Nc2ccc3nccnc3c2P(C)(C)=O)c2cc[nH]c2n1` [Example 25, (6-((2-((2-methoxy-5-(1-methyl-1H-pyrazol-4-yl)-4-morpholino-phenyl)amino)-7H-pyrrolo[2,3-d]pyrimidin-4-yl)amino)quinoxalin-5-yl)dimethyl-phosphine oxide], the IC50 against EGFR Del19/T790M/C797S was not above 0.05 µM. Further, the concentration for 50% growth inhibition (GI50) in test [1] is not above 0.05 µM; with BaF3-EGFR (WT) cells it was more than 0.1 µM.

At EGFR Del19/T790M/C797S, `COc1cc(N2C[C@@H]3C[C@H]2CO3)c(-c2cnn(C)c2)cc1Nc1nc(Nc2ccc3nccnc3c2P(C)(C)=O)c2cc[nH]c2n1` [Example 26, (6-((2-((4-((1s,4S)-2-oxa-5-azabicyclo [2.2.1]heptan-5-yl)-2-methoxy-5-(1-methyl-1H-pyrazol-4-yl)phenyl)amino)-7H-pyrrolo[2,3-d]pyrimidin-4-yl)amino)quinoxalin-5-yl)dimethyl-phosphine oxide] showed an IC50 not above 0.05 µM. For the same compound, the 50% growth inhibitory concentration (GI50) in test [1] is not above 0.05 µM; with BaF3-EGFR (WT) cells it was more than 0.1 µM.

`COc1cc(N2C[C@H]3C[C@@H]2CO3)c(-c2cnn(C)c2)cc1Nc1nc(Nc2ccc3nccnc3c2P(C)(C)=O)c2cc[nH]c2n1` [Example 27] yielded an IC50 on EGFR Del19/T790M/C797S not above 0.05 µM. For the same compound, the concentration for 50% growth inhibition (GI50) in test [1] is not above 0.05 µM; in the test with BaF3-EGFR (WT) cells, more than 0.1 µM.

For `COc1ccc(-c2cnn(C)c2)cc1Nc1nc(Nc2ccc3nccnc3c2P(C)(C)=O)c2cc[nH]c2n1` [Example 28, (6-((2-((2-methoxy-5-(1-methyl-1H-pyrazol-4-yl)phenyl)amino)-7H-pyrrolo[2,3-d]pyrimidin-4-yl)amino)quinoxalin-5-yl)dimethyl-phosphine oxide], at EGFR Del19/T790M/C797S, the 50% inhibitory concentration (IC50) was not above 0.05 µM. The figures for the 50% growth inhibitory concentration (GI50) (in test [1]; in the test with BaF3-EGFR (WT) cells) were not above 0.05 µM and more than 0.1 µM, respectively.

Consider `COc1cc(N2CC3(COC3)C2)c(-c2cnn(C)c2)cc1Nc1nc(Nc2ccc3nccnc3c2P(C)(C)=O)c2cc[nH]c2n1` [Example 29, (6-((2-((2-methoxy-5-(1-methyl-1H-pyrazol-4-yl)-4-(2-oxa-6-azaspiro[3.3]heptan-6-yl)phenyl)amino)-7H-pyrrolo[2,3-d]pyrimidin-4-yl)amino)quinoxalin-5-yl)dimethyl-phosphine oxide], for which, on EGFR Del19/T790M/C797S, the IC50 is not above 0.05 µM. Besides, the 50% growth inhibitory concentration (GI50) (in test [1]; with BaF3-EGFR (WT) cells) was more than 0.1 µM throughout.

Regarding `COc1cc(N2C[C@H]3CC[C@@H](C2)O3)c(-c2cnn(C)c2)cc1Nc1nc(Nc2ccc3nccnc3c2P(C)(C)=O)c2cc[nH]c2n1` [Example 30, (6-((2-((4-((1R,5S)-8-oxa-3-azabicyclo [3.2.1]octan-3-yl)-2-methoxy-5-(1-methyl-1H-pyrazol-4-yl)phenyl)amino)-7H-pyrrolo[2,3-d]pyrimidin-4-yl)amino)quinoxalin-5-yl)dimethyl-phosphine oxide], the IC50 against EGFR Del19/T790M/C797S was not above 0.05 µM. In addition, the GI50 in test [1] was not above 0.05 µM; in the test with BaF3-EGFR (WT) cells it was more than 0.1 µM.

Compound `COc1cc(F)c(-c2cnn(C)c2)cc1Nc1nc(Nc2ccc3nccnc3c2P(C)(C)=O)c2cc[nH]c2n1` [Example 31, (6-((2-((4-fluoro-2-methoxy-5-(1-methyl-1H-pyrazol-4-yl)phenyl)amino)-7H-pyrrolo[2,3-d]pyrimidin-4-yl)amino)quinoxalin-5-yl)dimethyl-phosphine oxide] yielded a 50% inhibitory concentration (IC50) against EGFR Del19/T790M/C797S not above 0.05 µM. The 50% growth inhibitory concentration (GI50) (in test [1]; in the test with BaF3-EGFR (WT) cells) was more than 0.1 µM throughout.

As for `COc1cc(N2CCC3(CC2)COC3)c(-c2cnn(C)c2)cc1Nc1nc(Nc2ccc3nccnc3c2P(C)(C)=O)c2cc[nH]c2n1` [Example 32, (6-((2-((2-methoxy-5-(1-methyl-1H-pyrazol-4-yl)-4-(2-oxa-7-azaspiro[3.5]nonane-7-yl)phenyl)amino)-7H-pyrrolo[2,3-d]pyrimidin-4-yl)amino)quinoxalin-5-yl)dimethyl-phosphine oxide], the IC50 against EGFR Del19/T790M/C797S is not above 0.05 µM. Moreover, the GI50 in test [1] is not above 0.05 µM; with BaF3-EGFR (WT) cells, more than 0.1 µM.

The compound `COc1cc(N2CC3(CCOCC3)C2)c(-c2cnn(C)c2)cc1Nc1nc(Nc2ccc3nccnc3c2P(C)(C)=O)c2cc[nH]c2n1` [Example 33, (6-((2-((2-methoxy-5-(1-methyl-1H-pyrazol-4-yl)-4-(7-oxa-2-azaspiro[3.5]nonane-2-yl)phenyl)amino)-7H-pyrrolo[2,3-d]pyrimidin-4-yl)amino)quinoxalin-5-yl)dimethyl-phosphine oxide] registered a concentration for half-maximal inhibition (IC50) on EGFR Del19/T790M/C797S not above 0.05 µM. The 50% growth inhibitory concentration (GI50) (in test [1]; with BaF3-EGFR (WT) cells) was more than 0.1 µM each time.

Take `Cn1cc(-c2cc(Nc3nc(Nc4ccc5nccnc5c4P(C)(C)=O)c4cc[nH]c4n3)ccc2N2CCOCC2)cn1` [Example 34, dimethyl (6-((2-((3-(1-methyl-1H-pyrazol-4-yl)-4-morpholino-phenyl)amino)-7H-pyrrolo[2,3-d]pyrimidin-4-yl)amino)quinoxalin-5-yl)phosphine oxide]: the IC50 at EGFR Del19/T790M/C797S was not above 0.05 µM. In addition, the GI50 in test [1] is not above 0.05 µM; with BaF3-EGFR (WT) cells, more than 0.1 µM.

The compound `COc1cc(OCCN(C)C)c(-c2cnn(C)c2)cc1Nc1nc(Nc2ccc3nccnc3c2P(C)(C)=O)c2cc[nH]c2n1` [Example 35, (6-((2-((4-(2-(dimethylamino)ethoxy)-2-methoxy-5-(1-methyl-1H-pyrazol-4-yl)phenyl)amino)-7H-pyrrolo[2,3-d]pyrimidin-4-yl)amino)quinoxalin-5-yl)dimethyl-phosphine oxide] gave an IC50 on EGFR Del19/T790M/C797S not above 0.05 µM. The GI50 in test [1] was not above 0.05 µM; in the test with BaF3-EGFR (WT) cells, more than 0.1 µM.
